The text below walks through data of ChEMBL document CHEMBL4000229, “Structure-activity relationships of diverse xanthones against multidrug resistant human tumor cells” (Bioorg Med Chem Lett, 2017).

One assay concerns SMMC-7721. The assay is described as follows: Cytotoxicity against Taxol-resistant human SMMC7721 cells measured after 48 hrs by MTT assay. It counts as functional, cell-based. As to conditions: SMMC-7721, 48 h. A general note: Tetrazolium assays rely on reduction of a dye to a coloured formazan, in cell work by metabolically active cells.
The term IC50 denotes the concentration at which inhibition is half-maximal. Read a high IC50 as a need for much substance. With `COc1c(O)cc2oc3ccc(O)cc3c(=O)c2c1O`, the IC50 was found to be 48.9 µM.
Same read-out and setting: next, `COc1cc(O)c2c(=O)c3cc(O)ccc3oc2c1`: 87.4 µM; `O=c1c2cc(O)ccc2oc2cc(O)cc(O)c12`: 38.5 µM; `O=c1c2cc(O)ccc2oc2cccc(O)c12`: 60.4 µM.
On the same count and under the same terms, with `COc1cc(OC)c2c(=O)c3c(O)cccc3oc2c1OC` the figure was 50.9 µM.
As to `COc1cc2c(=O)c3c(O)c(OC)c(O)cc3oc2cc1O`, inhibition was half-maximal at 102 µM (IC50).
The same measure, in the same setting: next, `COc1c(O)cc2oc3cccc(O)c3c(=O)c2c1O`: 43.8 µM; `COc1c(O)cc(OC)c2c(=O)c3c(O)cccc3oc12`: 14.7 µM.
The same measure, in the same setting: with `COc1ccc2oc3ccc(O)cc3c(=O)c2c1OC` the figure was 81.8 µM; with `COc1c(O)ccc2oc3ccc(O)cc3c(=O)c12`, 56.3 µM; with `COc1cc(O)c2c(=O)c3cc(O)ccc3oc2c1OC`, 63 µM.
On the same count and under the same terms, with `COc1ccc2oc3ccc(O)c(OC)c3c(=O)c2c1` the figure was 83.7 µM; with `COc1ccc(O)c2c(=O)c3cc(O)ccc3oc12`, 15.1 µM.

A further assay relates to A549. Briefly: Cytotoxicity against Taxol-resistant human A549 cells measured after 48 hrs by MTT assay. It counts as functional, cell-based. Particulars: A549, 48 h.
On to `COc1c(O)cc2oc3ccc(O)cc3c(=O)c2c1O`, for which the IC50 was found to be 167 µM.
The compound `COc1cc(O)c2c(=O)c3cc(O)ccc3oc2c1` showed an IC50 of 104 µM.
`O=c1c2cc(O)ccc2oc2cc(O)cc(O)c12` displayed an IC50 of 146 µM.
In turn, `O=c1c2cc(O)ccc2oc2cccc(O)c12` registered an IC50 of more than 200 µM.
Same read-out and setting: with `COc1cc(OC)c2c(=O)c3c(O)cccc3oc2c1OC` the figure was 34.6 µM; with `COc1cc2c(=O)c3c(O)c(OC)c(O)cc3oc2cc1O`, more than 200 µM.
Turning to `COc1c(O)cc2oc3cccc(O)c3c(=O)c2c1O`, the IC50 was more than 200 µM.
Take `COc1c(O)cc(OC)c2c(=O)c3c(O)cccc3oc12`: the IC50 amounted to 25.6 µM.
Same read-out and setting: with `COc1ccc2oc3ccc(O)cc3c(=O)c2c1OC` the figure was 178 µM; with `COc1c(O)ccc2oc3ccc(O)cc3c(=O)c12`, 37.1 µM; with `COc1cc(O)c2c(=O)c3cc(O)ccc3oc2c1OC`, 62.3 µM.
The same measure, in the same setting: with `COc1ccc2oc3ccc(O)c(OC)c3c(=O)c2c1` the figure was 35.2 µM.
Still for that read-out and setting: next, `COc1ccc(O)c2c(=O)c3cc(O)ccc3oc12`: 38.9 µM.

The next assay deals with NCI/ADR-RES. The assay is described as follows: Cytotoxicity against human MCF7/ADR cells measured after 48 hrs by MTT assay.
Details: not given
It counts as functional, cell-based.
Turning to `COc1c(O)cc2oc3ccc(O)cc3c(=O)c2c1O`, the IC50 is more than 200 µM.
The compound `COc1cc(O)c2c(=O)c3cc(O)ccc3oc2c1` registered an IC50 of 31.8 µM.
Still for that read-out and setting: with `O=c1c2cc(O)ccc2oc2cc(O)cc(O)c12` the figure was 193 µM.
On to `O=c1c2cc(O)ccc2oc2cccc(O)c12`, for which the IC50 is more than 200 µM.
Same read-out and setting: with `COc1cc(OC)c2c(=O)c3c(O)cccc3oc2c1OC` the figure was 59.1 µM.
`COc1cc2c(=O)c3c(O)c(OC)c(O)cc3oc2cc1O` showed an IC50 of more than 200 µM.
For the compound `COc1c(O)cc2oc3cccc(O)c3c(=O)c2c1O`, the IC50 is more than 200 µM.
The same measure, in the same setting: with `COc1c(O)cc(OC)c2c(=O)c3c(O)cccc3oc12` the figure was 30.4 µM; with `COc1ccc2oc3ccc(O)cc3c(=O)c2c1OC`, 53.5 µM; with `COc1c(O)ccc2oc3ccc(O)cc3c(=O)c12`, 109 µM.
On to `COc1cc(O)c2c(=O)c3cc(O)ccc3oc2c1OC`, for which inhibition was half-maximal at 57.3 µM (IC50).
Still for that read-out and setting: with `COc1ccc2oc3ccc(O)c(OC)c3c(=O)c2c1` the figure was 102 µM.
As for `COc1ccc(O)c2c(=O)c3cc(O)ccc3oc12`, it took 185 µM to reach half-maximal inhibition (IC50).
